One data set concerns the target T1, CYP2C9 (Homo sapiens, UniProt P11712).
T1 construct: enzyme: pooled human liver microsome 0.2 mg protein/mL; from tissue; host or cells: pooled human liver microsomes
Kind of data set: CYP inhibition test, methyl-hydroxylation of tolbutamide. The note with it: pooled human liver microsome; one of 5 kinds. Format: in vitro ADME. From the text: (§1) O-de-ethylation of 7-ethoxyresorufin (CYP1A2), methyl-hydroxylation of tolbutamide (CYP2C9), 4′-hydroxylation of mephenyloin (CYP2C19), O-demethylation of dextromethorphan (CYP2D6), and hydroxylation of terfenadine (CYP3A4), which are typical substrate for metabolic reactions of human main CYP5 molecular species (CYP1A2, 2C9, 2C19, 2D6, and 3A4), were adopted as indexes.
(§2) The reaction conditions are as follows: substrate: 0.5 μmol/L of ethoxyresorufin (CYP1A2), 100 μmol/L of tolbutamide (CYP2C9), 50 μmol/L of S-mephenyloin (CYP2C19), […] of dextromethorphan (CYP2D6), and 1 μmol/L of terfenadine (CYP3A4); reaction time; 15 minutes; reaction temperature: 37° C.; enzyme: pooled human liver microsome 0.2 mg protein/mL; test drug concentration: 1, 5, 10, and 20 μmol/L (4 points).
(§3) In a 96-well plate, as a reaction solution, five kinds of substrates, a human liver microsome, and a test drug were added to 50 mmol/L Hepes buffer solution in the aforementioned ratio. A coenzyme NADPH was added to start a metabolic reaction, which is an index. After reacting at 37° C. for 15 minutes, a solution of methanol/acetonitrile (1/1 (v/v)) was added to quench the reaction. After centrifugation at 3000 rpm for 15 minutes, resorufin (CYP1A2 metabolite) in the supernatant was quantitated with a fluorescence multilabel counter, and hydroxylated tolbutamide (CYP2C9 metabolite), 4′-hydroxylated mephenyloin (CYP2C19 metabolite), […], terfenadine in alcohol form (CYP3A4 metabolite) were quantitated with LC/MS/MS.
(§4) The case wherein only DMSO (a solvent which dissolved a drug) was added to a reaction system was defined as a control (100%). When a test drug solution was added, the remaining activity (%) at each concentration was calculated, and then IC50 was calculated with a concentration and an inhibition ratio by an inverse estimation using a logistic model.
(In general: Microsomes from liver hold many membrane-bound enzymes, among them those of drug oxidation.)

The target of another data set is T2, CYP2C19 (Homo sapiens, UniProt P33261).
T2 construct: enzyme: pooled human liver microsome 0.2 mg protein/mL; from tissue; host or cells: pooled human liver microsomes
T2 sequence (P33261 whole entry): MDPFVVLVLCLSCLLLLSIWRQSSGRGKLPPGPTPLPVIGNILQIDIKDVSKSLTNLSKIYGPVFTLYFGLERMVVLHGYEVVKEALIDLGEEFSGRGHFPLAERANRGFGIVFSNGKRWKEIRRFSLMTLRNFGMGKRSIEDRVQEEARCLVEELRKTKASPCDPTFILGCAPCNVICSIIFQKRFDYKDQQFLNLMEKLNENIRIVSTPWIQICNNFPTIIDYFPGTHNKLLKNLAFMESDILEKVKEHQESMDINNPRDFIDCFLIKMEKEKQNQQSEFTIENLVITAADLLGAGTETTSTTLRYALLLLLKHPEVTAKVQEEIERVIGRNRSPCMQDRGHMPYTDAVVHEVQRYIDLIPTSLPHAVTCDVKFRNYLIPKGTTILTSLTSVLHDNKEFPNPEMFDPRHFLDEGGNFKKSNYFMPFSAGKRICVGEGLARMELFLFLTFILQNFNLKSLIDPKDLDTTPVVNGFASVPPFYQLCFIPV
The experiment in a line: CYP inhibition test, 4′-hydroxylation of mephenyloin. The format is in vitro ADME. The following applies: pooled human liver microsome; one of 5 kinds.
Source text: as §1, §2, §3, §4

For the next data set, the target named is T3, CYP2D6 (Homo sapiens, UniProt P10635).
T3 construct: enzyme: pooled human liver microsome 0.2 mg protein/mL; from tissue; host or cells: pooled human liver microsomes
T3 sequence (P10635 whole entry): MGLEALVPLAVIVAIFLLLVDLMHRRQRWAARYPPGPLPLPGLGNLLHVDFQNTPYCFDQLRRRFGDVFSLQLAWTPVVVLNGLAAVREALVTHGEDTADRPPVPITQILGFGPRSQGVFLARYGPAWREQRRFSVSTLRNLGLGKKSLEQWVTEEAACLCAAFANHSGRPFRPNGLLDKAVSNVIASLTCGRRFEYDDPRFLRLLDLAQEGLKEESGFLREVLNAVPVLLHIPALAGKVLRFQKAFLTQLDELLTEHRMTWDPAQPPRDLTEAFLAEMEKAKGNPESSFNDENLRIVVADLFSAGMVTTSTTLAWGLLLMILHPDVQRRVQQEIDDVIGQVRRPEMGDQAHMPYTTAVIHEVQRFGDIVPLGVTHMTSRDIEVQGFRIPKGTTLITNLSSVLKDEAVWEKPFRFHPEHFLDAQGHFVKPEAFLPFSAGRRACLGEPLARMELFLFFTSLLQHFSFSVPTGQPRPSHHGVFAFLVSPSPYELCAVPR
The experiment in a line: CYP inhibition test, O-demethylation of dextromethorphan. The format is in vitro ADME. The following applies: pooled human liver microsome; one of 5 kinds.
Source text: as §1, §2, §3, §4

The target in the next data set is T4, CYP1A2 (Homo sapiens, UniProt P05177).
T4 construct: enzyme: pooled human liver microsome 0.2 mg protein/mL; from tissue; host or cells: pooled human liver microsomes
T4 sequence (P05177 1-516): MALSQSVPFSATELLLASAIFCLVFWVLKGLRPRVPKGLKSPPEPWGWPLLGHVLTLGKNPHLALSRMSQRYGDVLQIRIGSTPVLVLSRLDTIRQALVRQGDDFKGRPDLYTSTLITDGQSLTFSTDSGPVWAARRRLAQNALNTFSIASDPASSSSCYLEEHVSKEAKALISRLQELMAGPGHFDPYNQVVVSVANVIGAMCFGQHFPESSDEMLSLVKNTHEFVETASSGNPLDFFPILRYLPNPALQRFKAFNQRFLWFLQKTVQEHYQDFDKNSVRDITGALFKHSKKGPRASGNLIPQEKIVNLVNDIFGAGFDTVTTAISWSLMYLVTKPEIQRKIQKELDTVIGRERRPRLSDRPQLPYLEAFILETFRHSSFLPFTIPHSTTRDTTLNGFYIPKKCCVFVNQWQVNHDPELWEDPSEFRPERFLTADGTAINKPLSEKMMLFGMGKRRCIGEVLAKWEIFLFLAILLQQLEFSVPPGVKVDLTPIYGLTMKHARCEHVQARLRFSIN
Kind of data set: CYP inhibition test, O-de-ethylation of 7-ethoxyresorufin. The format is in vitro ADME. The following applies: pooled human liver microsome; one of 5 kinds.
Source text: as §1, §2, §3, §4

Data set [1] is described as follows: Solubility test in artificial intestinal juice pH 6.8. Format: physicochemical. The following applies: kinetic from dmso stock, artificial intestinal juice pH 6.8, 1% DMSO, 25° C. The protocol:
The solubility of a compound was determined under a condition in which 1% DMSO was added. 10 mmol/L compound solution was prepared using DMSO, and then 6 μL of the compound solution was added to 594 μL of artificial intestinal juice in pH 6.8 (to 250 mL of 0.2 mol/L potassium dihydrogen phosphate reagent solution was added 118 mL of 0.2 mol/L NaOH reagent solution and water to provide a final volume of 1000 mL). After standing at 25° C. for 16 hours, the mixed solution was filtered with suction. The filtrate was diluted twice with methanol/water (1/1), and then a concentration in the filtration was measured with HPLC or LC/MS/MS by the absolute calibration method.

The next data set addresses T5, CYP3A4 (Homo sapiens, UniProt P08684).
T5 construct: enzyme: pooled human liver microsome 0.2 mg protein/mL; from tissue; host or cells: pooled human liver microsomes
The experiment in a line: CYP inhibition test, hydroxylation of terfenadine. The format is in vitro ADME. The following applies: pooled human liver microsome; one of 5 kinds.
Source text: as §1, §2, §3, §4

pIC50: −log10 of the molar value.

Among the data in patent US20110172217A1, “RING-FUSED MORPHOLINE DERIVATIVE HAVING PI3K-INHIBITING ACTIVITY” (Shionogi & Co., Ltd., priority 2008, published 2011) are IC50 and solubility values, retold here.

As usually defined, the pIC50 is −log10 of the IC50, conventionally taken in molar units. High values mean a small IC50, low ones a large IC50. What is called solubility is how much of the substance goes into solution per volume. Higher therefore signals much dissolved substance.

T5 sequence (P08684 whole entry): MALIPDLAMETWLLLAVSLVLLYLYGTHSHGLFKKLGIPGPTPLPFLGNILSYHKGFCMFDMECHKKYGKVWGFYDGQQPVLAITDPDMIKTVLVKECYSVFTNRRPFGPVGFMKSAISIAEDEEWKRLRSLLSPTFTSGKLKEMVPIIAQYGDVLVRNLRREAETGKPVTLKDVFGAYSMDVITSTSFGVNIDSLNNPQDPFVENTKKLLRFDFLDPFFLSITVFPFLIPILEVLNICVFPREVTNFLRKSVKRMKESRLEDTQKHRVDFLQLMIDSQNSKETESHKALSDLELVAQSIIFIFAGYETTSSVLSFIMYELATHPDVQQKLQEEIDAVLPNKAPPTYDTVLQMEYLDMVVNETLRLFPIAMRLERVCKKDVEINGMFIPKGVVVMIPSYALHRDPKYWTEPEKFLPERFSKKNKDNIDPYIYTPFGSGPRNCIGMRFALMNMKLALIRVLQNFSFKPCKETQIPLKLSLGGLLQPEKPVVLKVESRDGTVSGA
T1 sequence (P11712 whole entry): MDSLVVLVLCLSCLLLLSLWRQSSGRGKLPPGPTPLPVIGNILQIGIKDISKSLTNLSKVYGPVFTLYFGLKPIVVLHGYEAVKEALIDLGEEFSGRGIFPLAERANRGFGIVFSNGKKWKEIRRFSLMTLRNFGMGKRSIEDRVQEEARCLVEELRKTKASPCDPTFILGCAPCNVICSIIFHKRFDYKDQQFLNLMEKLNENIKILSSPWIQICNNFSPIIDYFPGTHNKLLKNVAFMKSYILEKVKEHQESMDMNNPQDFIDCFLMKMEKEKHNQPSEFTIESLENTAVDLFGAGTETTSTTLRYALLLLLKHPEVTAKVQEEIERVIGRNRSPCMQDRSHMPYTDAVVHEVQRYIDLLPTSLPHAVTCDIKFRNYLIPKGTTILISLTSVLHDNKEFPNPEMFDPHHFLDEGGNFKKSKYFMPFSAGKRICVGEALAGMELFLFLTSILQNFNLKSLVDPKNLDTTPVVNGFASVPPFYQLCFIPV

Regarding `O=C(O)COc1cccc(Nc2ccc3c(n2)N(C(=O)Nc2ccccc2)CCO3)c1` [Compound I-240], the pIC50 on CYP2C9, against CYP2C19, against CYP2D6, on CYP1A2 and on CYP3A4 was below 4.70 throughout. The compound further registered a solubility at 16 h in data set [1] above 50 µM.
